Experimental data from patent US20250368699A1, “ARTHROPOD CHEMOSENSORY RECEPTORS AND USES THEREOF” (Firmenich Incorporated, priority 2022, published 2025).
Where two headings read alike, the source gives them in different places.

Biological target: AaORCO+AaOR8 receptors (Aedes aegypti, UniProt A0A1S4FVR6)
Assay: Automatic planar patch-clamp electrophysiology in U2OS cells co-transduced with AaORCO and AaOR8
Type: cell-based
Protocol: In this example, U2OS cells were co-transduced with AaORCO and AaOR8 channel subunits overnight and stimulated with increasing concentrations of 1-octen-3-ol ligand in the absence and presence of 10 μM VUAA1.
Cell culture and transduction. U2OS and HEK293 cells were grown on T150 flasks with Dulbecco's modified eagle medium supplemented with 10% fetal bovine serum and 1% Penicillin/Streptomycin in a 37° C. incubator under a 5% CO2 atmosphere. For transductions, cell cultures were pooled at 1.5×10^6 cell/ml, centrifuged at 1000 xg for 5 min, and resuspended in fresh medium. Resuspended cultures were inoculated at a multiplicity of 1-20 pfu/cell with baculovirus encoding AaORCO or AaORCO with AaOR8, AaOR2 or AaOR11 and AgORCO with AgOR8 or AgOR2. A further untransduced culture was used as a control. Cultures were maintained in an incubator at 37° C. and used for electrophysiology or FLIPR measurements 1-4 days after infection.
Planar Patch Clamp Electrophysiology Assay. […] On the day of the assay, the cells were lifted, washed once in PBS and loaded on a Nanion Synchropatch384 instrument and currents were recorded using voltage clamp in standard whole-cell configuration at-90 mV on an 8-hole version chip (NPC-384T).

Sequence of AaORCO+AaOR8 receptors (Q178U6 whole entry): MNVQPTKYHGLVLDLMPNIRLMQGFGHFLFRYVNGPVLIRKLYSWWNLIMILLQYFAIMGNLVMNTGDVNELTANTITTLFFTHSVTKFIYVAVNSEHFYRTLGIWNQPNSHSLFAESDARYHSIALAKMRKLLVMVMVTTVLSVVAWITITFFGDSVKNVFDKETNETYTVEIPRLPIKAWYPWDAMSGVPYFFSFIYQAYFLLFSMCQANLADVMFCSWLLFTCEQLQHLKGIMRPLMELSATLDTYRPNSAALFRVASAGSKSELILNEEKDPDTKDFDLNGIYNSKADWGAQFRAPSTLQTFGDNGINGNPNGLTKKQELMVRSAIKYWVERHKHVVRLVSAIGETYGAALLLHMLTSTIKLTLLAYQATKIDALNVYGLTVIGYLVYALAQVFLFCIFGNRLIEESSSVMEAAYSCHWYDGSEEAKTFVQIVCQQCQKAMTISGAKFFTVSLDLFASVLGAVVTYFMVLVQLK
Sequence of AaORCO+AaOR8 receptors (A0A1S4FVR6 entry or part of it): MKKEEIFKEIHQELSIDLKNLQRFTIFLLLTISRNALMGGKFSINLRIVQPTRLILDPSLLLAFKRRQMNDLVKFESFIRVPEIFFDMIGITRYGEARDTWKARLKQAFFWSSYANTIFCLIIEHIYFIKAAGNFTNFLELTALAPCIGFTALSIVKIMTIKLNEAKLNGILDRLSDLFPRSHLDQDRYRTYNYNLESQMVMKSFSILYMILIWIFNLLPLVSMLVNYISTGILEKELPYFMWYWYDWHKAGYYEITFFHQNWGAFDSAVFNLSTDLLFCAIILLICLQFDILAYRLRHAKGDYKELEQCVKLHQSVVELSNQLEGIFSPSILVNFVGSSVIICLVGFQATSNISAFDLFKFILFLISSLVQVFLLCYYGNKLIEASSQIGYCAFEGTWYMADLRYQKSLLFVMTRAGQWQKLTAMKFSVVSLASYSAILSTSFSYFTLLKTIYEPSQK

EC50 (absence of VUAA1, read-out: EC50, dose-dependent activation of AaORCO+AaOR8 channel currents): 537 nM | EC50 (presence of 10 μM VUAA1, read-out: EC50, activation of AaORCO+AaOR8 channel currents in the presence of VUAA1 (left-shift)): 101 nM
SMILES: C=CC(O)CCCCC (centres unmarked) [1-octen-3-ol]
